Measurements published in patent US6620967B1, “Ketosis-treating agent” (priority 1999, dated 2003).

What follows are molecules tested on Wistar male rats subjected to ketosis under starvation for 48 hours (assay: Effects at oral administration in rats subjected to ketosis under starvation). Conditions: oral (into the stomach), 1 or 2 mmol/kg-body weight, blood from tail vein up to 240 minutes after administration.
Assay type: in vivo, rat
Description: Wistar male rats of 6 to 8 week age were subjected to ketosis under starvation for 48 hours and then used for experiment. Each of glutamine, glutamic acid, valine, isoleucine and serine was dissolved in water for injection and administered into the stomach using a gastroconductor to give a dose of 1 or 2 mmol/kg-body weight. As controls, the same quantity of water for injection was similarly administered, or each of glucose and alanine was similarly administered to give a dose of 1 or 2 mmol/kg-body weight.
Before the administration, and 30, 60, 90, 120, 180 and 240 minutes after the administration, blood was collected from a tail vein and the concentration of glucose in blood and the concentration of 3-hydroxybutyric acid usually measured for diagnosis of ketosis were measured.
FIGS. 1 to 10 show changes of the concentrations of glucose and 3-hydroxybutyric acid in blood, which are expressed as rates of change from the values before the administration (FIG. 1: water for injection, FIG. 2: 1 mmol/kg of glucose, FIG. 3: 1 mmol/kg of alanine, FIG. 4: 2 mmol/kg of alanine, FIG. 5: 1 mmol/kg of glutamine, FIG. 6: 1 mmol/kg of glutamic acid, FIG. 7: 1 mmol/kg of valine, FIG. 8: 2 mmol/kg of valine, FIG. 9: 2 mmol/kg of isoleucine, FIG. 10: 2 mmol/kg of serine). In the figures, the symbols “-∘-” and “-▴-” correspond to the rates of change of 3-hydroxybutyric acid and glucose, respectively.
Furthermore, as shown in the figures, the effect on reduction of ketone bodies disappeared within about 4 hours when glucose was used. On the other hand, when glutamine, glutamic acid, valine or isoleucine was used, the period of effecting the reduction of the concentration of ketone bodies was expected to be 24 hours or more, and therefore, they were effective as ketosis-treating agents having long duration of the effect.

| SMILES | concentration of glucose in blood, change from value before administration | concentration of ketone bodies (3-hydroxybutyric acid) in blood, change from value before administration |
| --- | --- | --- |
| CC[C@H](C)[C@H](N)C(=O)O [isoleucine] | without largely increasing the concentration of glucose in blood | reduced the concentration of ketone bodies |
| N[C@@H](CO)C(=O)O [serine] | without largely increasing the concentration of glucose in blood | reduced the concentration of ketone bodies |
| CC(C)[C@H](N)C(=O)O [valine] | without largely increasing the concentration of glucose in blood | reduced the concentration of ketone bodies |
